Experimental data reported in paper PMC11249626, “Fluorophore-Labeled Pyrrolones Targeting the Intracellular Allosteric Binding Site of the Chemokine Receptor CCR1” (ACS Pharmacology & Translational Science, 2024).
Read-outs that look alike come from different tables or passages of the source.

Target: T1, human chemokine receptor CCR1 (Homo sapiens, UniProt P32246)
T1 construct: expressed in transfected cells; host or cells: HEK293T, transient
T1 sequence (P32246 1-355): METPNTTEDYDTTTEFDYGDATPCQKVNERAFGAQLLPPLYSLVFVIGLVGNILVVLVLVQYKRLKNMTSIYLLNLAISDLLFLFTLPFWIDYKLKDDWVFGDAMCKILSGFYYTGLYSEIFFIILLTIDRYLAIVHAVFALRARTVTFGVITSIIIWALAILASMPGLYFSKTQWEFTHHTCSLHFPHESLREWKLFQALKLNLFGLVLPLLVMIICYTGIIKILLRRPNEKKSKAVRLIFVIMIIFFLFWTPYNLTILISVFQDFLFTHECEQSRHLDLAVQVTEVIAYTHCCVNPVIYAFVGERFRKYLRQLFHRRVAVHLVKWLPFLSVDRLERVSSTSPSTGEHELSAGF
Test: Cellular NanoBiT miniGi recruitment assay
Assay type: cell-based
Settings: in the presence of CCL5 (3 nM)
Protocol: Technologies) for 20 min.
Cellular NanoBiT miniGi recruitment assay s: Chemokine-induced Gi recruitment to the chemokine receptor CCR1 was monitored using a nanoluciferase complementation -based assay (NanoBiT, Promega). 20 5 x 10^6 HEK293T cells were plated in 10 cm dishes and cultured for 24 h before transfection with vectors encoding for the human chemokine receptor CCR1 C-terminally fused with SmBiT and miniGi (mG, engineered GTPase domain of Gα subunit) N-terminally fused with LgBiT. 24 h after transfection cells were harvested, distributed into white 96 -well plates (5 × 10^4 cells per well) and incubated for 1 h at 37 °C with compound 23 at concentrations ranging from 10 nM to 100 µM. The endogenous chemokine ligand CCL5 (3 nM, for CCR1) was then added, and luminescence generated upon nanoluciferase complementation in the presence of coelenterazine H was measured with a Mithras LB940 luminometer (Berthold Technologies) for 20 min. […]
Finally, the top 5% of the identified hits were subsequently docked to a homology model of CCR1 (vide infra). After visual examination of the obtained binding modes 24 hit compounds were identified for further investigation .
Molecular docking: For the docking studies in the course of our virtual screening campaign, the CCR1 protein was […]
27, 28 CCR1 structure was optimized using the Quickprep and structure preparation wizard in MOE 24 using CHARMM27 forcefield. The protein was saved in mol2 format and loaded in GOLD.25, 26 The amino acids defining the IABS were listed in a text file to define the docking cavity. 50 GA runs were performed for docking CCR2-RA-[R] (4-[R]) and SN_12 (43), with the generated solutions clustered based on their RMSD with the threshold set to 0.75 Å using the complete linkage method. Docking runs were performed using ChemScore. […]

## O=C(C1=C(O)C(=O)N(CCc2ccc(O)cc2)C1c1ccc(F)cc1)c1ccccc1 (racemic) [compound 23]
read-out: IC50, miniGi recruitment
  IC50: 68.9 µM
read-out: pIC50, miniGi recruitment (converted)
  IC50: 67.6 µM
